The values below come from ChEMBL document CHEMBL2311255, “Discovery of alkenylboronic acids as neuroprotective agents affecting multiple biological targets involved in Alzheimer's disease” (Bioorg Med Chem Lett, 2013).

Series [1] deals with SH-SY5Y. The experiment in a line: Neuroprotective activity in human APP695-transfected SH-SY5Y cells assessed as decrease of malondialdehyde level after 16 hrs (reference value: 52 +/- 1.84 nmol/mg). The series is classed as functional.
For a further series, the system named is Acetylcholinesterase. The experiment in a line: Inhibition of AChE (unknown origin) measured for 3 mins by Ellman colorimetric method. Conditions: Homo sapiens.
For series [2], the system named is SH-SY5Y. The experiment in a line: Neuroprotective activity in human APP695-transfected SH-SY5Y cells assessed as inhibition of H2O2-induced increase of caspase-3 activity after 60 mins by fluorescence assay. The series is classed as functional.
For series [3], the system named is SH-SY5Y. The experiment in a line: Neuroprotective activity in human APP695-transfected SH-SY5Y cells assessed as H2O2-induced GSH-glutathione disulfide level after 16 hrs (reference value: 6.85 +/- 0.92 nmol/mg). The series is classed as functional.
Series [4] relates to SH-SY5Y. The experiment in a line: Neuroprotective activity in human APP695-transfected SH-SY5Y cells assessed as inhibition of ROS production at 5 uM after 60 mins by DCFA-DA assay. Type of series: functional, cell-based.
Series [5] has as its system SH-SY5Y. The experiment in a line: Neuroprotective activity in human APP695-transfected SH-SY5Y cells assessed as inhibition of H2O2-induced ROS production at 5 uM after 60 mins by DCFA-DA assay. Type of series: functional. The conditions noted are these: 1 h.
Series [6] has as its system SH-SY5Y. The experiment in a line: Neuroprotective activity in human APP695-transfected SH-SY5Y cells assessed as decrease of H2O2-induced malondialdehyde level after 16 hrs (reference value: 67.83 +/- 5.86 nmol/mg). Type of series: functional.
The subject of series [7] is SH-SY5Y. The experiment in a line: Neuroprotective activity in human APP695-transfected SH-SY5Y cells assessed as GSH-glutathione disulfide level after 16 hrs (reference value: 4.71 +/- 0.48 nmol/mg). Type of series: functional.
The test system of series [8] is SH-SY5Y. The experiment in a line: Neuroprotective activity in human APP695-transfected SH-SY5Y cells assessed as inhibition of H2O2-induced decrease in glutathione level after 16 hrs (reference value: 22.95 +/- 0.59 nmol/mg). The series is classed as functional.
Series [9] is described as follows: Cytotoxicity against human APP695-transfected SH-SY5Y cells at 10 uM after 24 hrs by MTT assay. Type of series: cell-based.
Series [10] relates to SH-SY5Y. The experiment in a line: Neuroprotective activity in human APP695-transfected SH-SY5Y cells assessed as increase of glutathione level after 16 hrs (reference value: 17.79 +/- 1.59 nmol/mg). Type of series: functional.
In another series the target is Beta-secretase 1 (Homo sapiens, UniProt P56817). The experiment in a line: Inhibition of human recombinant BACE using H-RE-(EDANS)EVNLDAEFK(DABCYL)R-OH as substrate preincubated for 1 hr before addition of substrate measured after 1 hr.
Chain of Beta-secretase 1 (P56817 whole entry): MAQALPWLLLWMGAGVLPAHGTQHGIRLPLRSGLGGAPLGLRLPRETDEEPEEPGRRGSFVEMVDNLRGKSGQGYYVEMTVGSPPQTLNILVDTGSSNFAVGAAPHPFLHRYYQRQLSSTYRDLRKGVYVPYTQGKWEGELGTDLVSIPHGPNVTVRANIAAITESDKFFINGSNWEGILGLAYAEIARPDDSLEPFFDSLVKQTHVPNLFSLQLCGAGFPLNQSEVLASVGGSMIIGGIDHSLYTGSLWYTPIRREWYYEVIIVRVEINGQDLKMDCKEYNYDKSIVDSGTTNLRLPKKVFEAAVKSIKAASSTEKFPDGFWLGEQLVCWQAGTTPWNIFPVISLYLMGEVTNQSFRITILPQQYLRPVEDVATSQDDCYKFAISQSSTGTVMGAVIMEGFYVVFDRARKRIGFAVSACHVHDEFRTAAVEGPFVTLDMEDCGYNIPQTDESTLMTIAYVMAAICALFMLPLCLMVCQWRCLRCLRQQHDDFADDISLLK
The target in series [11] is Amyloid-beta precursor protein (Homo sapiens) (UniProt P05067). The experiment in a line: Inhibition of beta amyloid (25 to 35) (unknown origin) aggregation after 4 days by thioflavin-T fluorescence analysis.
Chain of Amyloid-beta precursor protein (Homo sapiens) (P05067 whole entry): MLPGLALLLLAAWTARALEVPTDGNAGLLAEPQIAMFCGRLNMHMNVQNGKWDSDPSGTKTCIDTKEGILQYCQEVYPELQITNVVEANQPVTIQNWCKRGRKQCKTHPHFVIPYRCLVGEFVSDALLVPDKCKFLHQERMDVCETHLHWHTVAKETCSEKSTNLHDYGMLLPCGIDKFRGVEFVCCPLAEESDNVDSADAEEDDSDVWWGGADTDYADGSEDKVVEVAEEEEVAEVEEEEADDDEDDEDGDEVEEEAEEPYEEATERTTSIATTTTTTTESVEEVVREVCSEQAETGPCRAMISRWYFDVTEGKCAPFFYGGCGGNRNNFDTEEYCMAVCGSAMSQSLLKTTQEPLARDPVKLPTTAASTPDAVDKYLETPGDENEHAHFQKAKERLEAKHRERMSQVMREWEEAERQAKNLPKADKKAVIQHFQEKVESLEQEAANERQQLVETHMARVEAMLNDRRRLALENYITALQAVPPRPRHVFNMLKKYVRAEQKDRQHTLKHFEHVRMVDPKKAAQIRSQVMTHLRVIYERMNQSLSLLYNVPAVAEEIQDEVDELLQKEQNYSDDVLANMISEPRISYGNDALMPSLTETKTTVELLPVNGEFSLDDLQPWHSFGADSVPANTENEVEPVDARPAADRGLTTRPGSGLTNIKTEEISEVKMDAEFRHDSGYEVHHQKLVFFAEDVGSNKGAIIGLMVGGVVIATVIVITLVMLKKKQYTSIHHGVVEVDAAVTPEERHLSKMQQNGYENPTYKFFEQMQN
For series [12], the system named is SH-SY5Y. The experiment in a line: Neuroprotective activity in human APP695-transfected SH-SY5Y cells assessed as inhibition of H2O2-induced ROS production after 60 mins by DCFA-DA assay. Type of series: functional, cell-based. The conditions noted are these: 1 h.
The target of series [13] is Amyloid-beta precursor protein (Homo sapiens) (UniProt P05067). The experiment in a line: Inhibition of beta amyloid (25 to 35) (unknown origin) disaggregation after 4 days by thioflavin-T fluorescence analysis.

Calls of active or inactive are those of the source. No cut-off for these calls is given here.

On to `CC1(C)OB(/C=C/c2cccc(C(F)(F)F)c2)OC1(C)C`, for which the Activity in the series on SH-SY5Y [1] was 44.03 nmol/mg; in the series with SH-SY5Y [3], 4.75 nmol/mg; in the series on SH-SY5Y [6] it was 45.55 nmol/mg; in the series with SH-SY5Y [7], 5.53 nmol/mg; with SH-SY5Y [8], 43.29 nmol/mg; in series [9], “Non-toxic”. In addition, the Activity with SH-SY5Y [10] was determined as 33.77 nmol/mg. Further, the inhibition entry with Acetylcholinesterase and in the series on SH-SY5Y [4] was “inactive” each time. Also, the “inhibition (INH)” value with SH-SY5Y [2] was greater than 50%. Moreover, in the series on SH-SY5Y [5], the inhibition (commonly the change of the read-out against control, counted positive when it falls) at 5 µM was less than 50%.
As to `OB(O)/C=C/C1CCCCC1`, the Activity was 37.12 nmol/mg in the series on SH-SY5Y [1]; 6.03 nmol/mg in the series on SH-SY5Y [3]; 45.38 nmol/mg in the series on SH-SY5Y [6]; 4.37 nmol/mg in the series on SH-SY5Y [7]; 35.58 nmol/mg in the series with SH-SY5Y [8]; “Non-toxic” in series [9]. Also, the Activity in the series on SH-SY5Y [10] came out at 24.06 nmol/mg. Moreover, the inhibition result in the series with Acetylcholinesterase and in the series on SH-SY5Y [4] was “inactive” in each case. Besides, in the series on SH-SY5Y [2], the “inhibition (INH)” value is recorded as greater than 50%. Also, in the series on SH-SY5Y [5], the inhibition at 5 µM was less than 50%.
As to `OB(O)c1ccc(C(F)(F)F)cc1`, the Activity is 45.36 nmol/mg with SH-SY5Y [1]; 5.85 nmol/mg in the series on SH-SY5Y [3]; 73.23 nmol/mg with SH-SY5Y [6]; 5.76 nmol/mg in the series on SH-SY5Y [7]; 26.59 nmol/mg with SH-SY5Y [8]; “Non-toxic” in [9]. The Activity with SH-SY5Y [10] is recorded as 23.32 nmol/mg. For the same compound, the inhibition result in the series with Acetylcholinesterase and with SH-SY5Y [4] was “inactive” throughout. Moreover, the inhibition at 5 µM in the series with SH-SY5Y [5] is less than 50%.
In the case of `OB(O)c1ccccc1` [PHENYLBORONIC ACID], the Activity in the series with SH-SY5Y [1] was 40.75 nmol/mg; in the series with SH-SY5Y [3] it was 4.85 nmol/mg; with SH-SY5Y [6] it was 52.78 nmol/mg; with SH-SY5Y [7], 5.85 nmol/mg; in the series on SH-SY5Y [8], 28.01 nmol/mg; in series [9], “Non-toxic”. In addition, the Activity in the series on SH-SY5Y [10] came to 28.62 nmol/mg. Moreover, the inhibition entry in the series on Acetylcholinesterase and in the series on SH-SY5Y [4] was “inactive” in each case. Further, in the series with SH-SY5Y [5], the inhibition at 5 µM is less than 50%.
For `CN1CC(=O)OB(/C=C/c2ccccc2)OC(=O)C1`, the Activity in the series on SH-SY5Y [1] was 41.96 nmol/mg; in the series on SH-SY5Y [3] it was 5.01 nmol/mg; with SH-SY5Y [6] it was 57.54 nmol/mg; in the series with SH-SY5Y [7], 6.11 nmol/mg; in the series with SH-SY5Y [8] it was 39.38 nmol/mg; in series [9] it was “Non-toxic”. Moreover, in the series on SH-SY5Y [10], the Activity was determined as 35.2 nmol/mg. Further, the inhibition result in the series on Acetylcholinesterase and in the series on SH-SY5Y [4] was “inactive” in each case. The inhibition at 5 µM in the series with SH-SY5Y [5] was less than 50%. Further, the IC50 (as a rule, the point on the concentration scale where inhibition reaches its midpoint) at Beta-secretase 1 stood at 136 µM.
Turning to `COc1cc(/C=C/B(O)O)cc(OC)c1`, the Activity is 42.79 nmol/mg with SH-SY5Y [1]; 6.23 nmol/mg in the series on SH-SY5Y [3]; 74.75 nmol/mg with SH-SY5Y [6]; 4.7 nmol/mg in the series on SH-SY5Y [7]; 32.03 nmol/mg in the series with SH-SY5Y [8]; “Non-toxic” in series [9]. Also, the Activity in the series with SH-SY5Y [10] is listed as 23.11 nmol/mg. In addition, the inhibition entry in the series with Acetylcholinesterase and in the series on SH-SY5Y [4] was “inactive” throughout. In the series on SH-SY5Y [5], the inhibition at 5 µM is less than 50%.
Take `OB(O)/C=C/c1ccccc1` [STYRYLBORONIC ACID]: the Activity in the series with SH-SY5Y [1] was 42.22 nmol/mg; in the series on SH-SY5Y [3], 4.25 nmol/mg; with SH-SY5Y [6], 53.23 nmol/mg; in the series with SH-SY5Y [7], 4.6 nmol/mg; in the series on SH-SY5Y [8], 30.62 nmol/mg; in series [9] it was “Non-toxic”. For the same compound, in the series on SH-SY5Y [10], the Activity amounted to 21.84 nmol/mg. For the same compound, the outcome in series [11] and in [13] was inactive. Also, the inhibition entry with Acetylcholinesterase and with SH-SY5Y [4] was “inactive” in each case. Also, the IC50 in the series with SH-SY5Y [12] is 8.08 µM.
On to `CC1(C)OB(/C=C/c2ccccc2)OC1(C)C`, for which the Activity with SH-SY5Y [1] is 40.71 nmol/mg; with SH-SY5Y [3], 4.89 nmol/mg; in the series with SH-SY5Y [6], 51.76 nmol/mg; in the series with SH-SY5Y [7], 3.87 nmol/mg; with SH-SY5Y [8] it was 37.04 nmol/mg; in series [9], “Non-toxic”. Besides, the Activity in the series with SH-SY5Y [10] is reported as 34.74 nmol/mg. Moreover, the inhibition result in the series with Acetylcholinesterase and in the series on SH-SY5Y [4] was “inactive” each time. Also, the inhibition at 5 µM in the series on SH-SY5Y [5] is less than 50%.
Turning to `COc1ccc(/C=C/B(O)O)cc1`, the Activity with SH-SY5Y [1] was 44.35 nmol/mg; in the series with SH-SY5Y [3], 6 nmol/mg; in the series with SH-SY5Y [6], 58.76 nmol/mg; in the series with SH-SY5Y [7], 4.56 nmol/mg; in the series on SH-SY5Y [8] it was 26.05 nmol/mg; in [9], “Non-toxic”. In addition, the Activity in the series on SH-SY5Y [10] is reported as 26.2 nmol/mg. The inhibition entry in the series with Acetylcholinesterase and in the series on SH-SY5Y [4] was “inactive” in each case. Further, the inhibition at 5 µM in the series with SH-SY5Y [5] is less than 50%.
`OB(O)/C=C/c1ccc(C(F)(F)F)cc1`: the Activity in the series on SH-SY5Y [1] is recorded as 35.67 nmol/mg; in the series on SH-SY5Y [3], 4.47 nmol/mg; in the series with SH-SY5Y [6] it was 38.23 nmol/mg; with SH-SY5Y [7] it was 4.3 nmol/mg; with SH-SY5Y [8] it was 27.02 nmol/mg; in series [9] it was “Non-toxic”. Moreover, the Activity with SH-SY5Y [10] was 31.48 nmol/mg. Besides, the result in [11] and in [13] was inactive. Further, the inhibition result with Acetylcholinesterase and in the series with SH-SY5Y [4] was “inactive” throughout. Moreover, in the series on SH-SY5Y [12], the IC50 was 2.85 µM. In addition, the “inhibition (INH)” value with SH-SY5Y [2] is listed as greater than 50%.
As for `COc1cc(/C=C/B2OC(C)(C)C(C)(C)O2)cc(OC)c1`, the Activity is given as 48.18 nmol/mg in the series on SH-SY5Y [1]; 4.53 nmol/mg with SH-SY5Y [3]; 53.36 nmol/mg in the series on SH-SY5Y [6]; 4.49 nmol/mg with SH-SY5Y [7]; 27.98 nmol/mg in the series with SH-SY5Y [8]; “Non-toxic” in [9]. The Activity with SH-SY5Y [10] stood at 25.36 nmol/mg. Besides, the inhibition entry with Acetylcholinesterase and with SH-SY5Y [4] was “inactive” throughout. The inhibition at 5 µM in the series on SH-SY5Y [5] was less than 50%.
With `CCCCC/C=C/B(O)O`, the Activity with SH-SY5Y [1] is 40.34 nmol/mg; in the series on SH-SY5Y [3], 3.94 nmol/mg; with SH-SY5Y [6], 59.21 nmol/mg; with SH-SY5Y [7] it was 4.65 nmol/mg; with SH-SY5Y [8], 27.22 nmol/mg; in series [9], “Non-toxic”. In the series with SH-SY5Y [10], the Activity was 27.35 nmol/mg. For the same compound, the inhibition entry in the series with Acetylcholinesterase and in the series on SH-SY5Y [4] was “inactive” throughout. The inhibition at 5 µM in the series on SH-SY5Y [5] was less than 50%.
`OB(O)/C=C/c1ccc(F)cc1`: the Activity is on record as 37.73 nmol/mg with SH-SY5Y [1]; 4.58 nmol/mg in the series on SH-SY5Y [3]; 52.64 nmol/mg with SH-SY5Y [6]; 4.75 nmol/mg in the series on SH-SY5Y [7]; 27.42 nmol/mg with SH-SY5Y [8]; “Non-toxic” in series [9]. Further, the Activity with SH-SY5Y [10] is given as 28.19 nmol/mg. For the same compound, the inhibition result in the series with Acetylcholinesterase and with SH-SY5Y [4] was “inactive” throughout. For the same compound, the “inhibition (INH)” value in the series with SH-SY5Y [2] is on record as greater than 50%. Moreover, the inhibition at 5 µM in the series with SH-SY5Y [5] is less than 50%.
Regarding `CC1(C)OB(/C=C/c2ccc(F)cc2F)OC1(C)C`, the Activity is 39.76 nmol/mg in the series on SH-SY5Y [1]; 6.06 nmol/mg with SH-SY5Y [3]; 53.1 nmol/mg with SH-SY5Y [6]; 5.33 nmol/mg in the series on SH-SY5Y [7]; 34.77 nmol/mg with SH-SY5Y [8]; “Non-toxic” in series [9]. For the same compound, the Activity with SH-SY5Y [10] was found to be 31.51 nmol/mg. The inhibition result with Acetylcholinesterase and with SH-SY5Y [4] was “inactive” in each case. Also, the inhibition at 5 µM in the series on SH-SY5Y [5] was less than 50%.
